This assay deals with human PCSK9 (Homo sapiens, UniProt Q8NBP7). The experiment in a line: PCSK9 ligand binding TR-FRET assay (interference with binding of human PCSK9 to human LDLR). Particulars: for Max % inhibition: PCSK9 FRET assay, efficacy (Amax), 100% = 1 uM unlabeled human PCSK9, 0% = DMSO; for IC50: TR-FRET, human PCSK9 Alexa Fluor 647 / human LDLR extracellular domain-Europium Kryptate, read-out: PCSK9 FRET Assay IC50. The gist of the method: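 Threefold compound dilutions were pre-incubated 30 min with PCSK9, after which 4 nM Europium Kryptate-tagged human LDLR ectodomain was added for a further 2 h.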
(TR-FRET usually uses a lanthanide donor and a delayed reading to cut background.)

Chain of human PCSK9 (Q8NBP7 153-692): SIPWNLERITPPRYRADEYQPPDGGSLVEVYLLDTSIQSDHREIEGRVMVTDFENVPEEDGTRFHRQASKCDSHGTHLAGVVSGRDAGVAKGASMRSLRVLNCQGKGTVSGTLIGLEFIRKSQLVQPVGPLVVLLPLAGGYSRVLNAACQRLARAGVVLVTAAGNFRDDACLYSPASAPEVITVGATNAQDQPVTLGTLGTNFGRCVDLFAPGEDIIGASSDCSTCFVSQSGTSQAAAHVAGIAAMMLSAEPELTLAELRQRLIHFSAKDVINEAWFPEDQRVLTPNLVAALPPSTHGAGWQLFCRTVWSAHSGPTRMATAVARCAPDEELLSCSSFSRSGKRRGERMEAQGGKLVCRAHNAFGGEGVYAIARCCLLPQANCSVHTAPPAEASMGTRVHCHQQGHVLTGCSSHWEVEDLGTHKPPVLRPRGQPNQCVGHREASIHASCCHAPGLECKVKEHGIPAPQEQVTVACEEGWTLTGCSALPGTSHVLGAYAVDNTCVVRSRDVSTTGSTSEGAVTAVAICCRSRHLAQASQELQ
Chain of human PCSK9 (Q8NBP7 31-152 partner limits assumed): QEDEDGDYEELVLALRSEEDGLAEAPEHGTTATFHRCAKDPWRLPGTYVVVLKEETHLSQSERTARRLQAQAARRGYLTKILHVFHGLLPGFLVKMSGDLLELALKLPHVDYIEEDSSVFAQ

For orientation: IC50 means the point on the concentration scale where inhibition reaches its midpoint. Consider `COC[C@@H]1NC(=O)[C@H](C)N(Cc2ccc(F)cc2Oc2ccc(-c3cnc(CN(C)C)n3C)cc2)C(=O)C[C@@H](Cc2ccccc2)C(=O)N(C)[C@H]2CCCC[C@@H]2NC(=O)C[C@H](Cc2ccc(Cl)cc2)N(C)C1=O` [Compound 48, (4S,7S,10S,14R,16aS,20aS)-14-benzyl-4-(4-chlorobenzyl)-11-(2-(4-(2-((dimethylamino)methyl)-1-methyl-1H-imidazol-5-yl)phenoxy)-4-fluorobenzyl)-7-(methoxymethyl)-5,10,16-trimethylhexadecahydrobenzo[l][1,4,7,11,14]pentaazacyclooctadecine-2,6,9,12,15(3H)-pentaone], for which the Max % inhibition was 87.82% and the IC50 was determined as 4.8 nM.
For `[2H]C([2H])([2H])N(Cc1ncc(-c2ccc(Oc3cc(Cl)ccc3CN3C(=O)C[C@@H](Cc4ccccc4)C(=O)N(C)[C@@H](C)CNC(=O)C[C@H](Cc4ccc(Cl)cc4)N(C)C(=O)[C@H](COC)NC(=O)[C@@H]3CC)cc2)n1C)C([2H])([2H])[2H]` [Compound 49, (2S,5S,8S,13S,16R)-16-benzyl-1-(2-(4-(2-((bis(methyl-d3)amino)methyl)-1-methyl-1H-imidazol-5-yl)phenoxy)-4-chlorobenzyl)-8-(4-chlorobenzyl)-2-ethyl-5-(methoxymethyl)-7,13,14-trimethyl-1,4,7,11,14-pentaazacyclooctadecane-3,6,10,15,18-pentaone], in that order: 99.12% and 1.7 nM.
In the same order, the values of `COC[C@@H]1NC(=O)[C@H](C)N(Cc2ccc(Cl)cc2Oc2ccc(-c3cnc(CN(C)C)n3C)cc2)C(=O)C[C@@H](Cc2ccccc2)C(=O)N(C)C(C)C(C)NC(=O)C[C@H](Cc2ccc(Cl)cc2)N(C)C1=O` (stereo partly drawn) [Compound 50, (2S,5S,8S,16R)-16-benzyl-1-(4-chloro-2-(4-(2-((dimethylamino)methyl)-1-methyl-1H-imidazol-5-yl)phenoxy)benzyl)-8-(4-chlorobenzyl)-5-(methoxymethyl)-2,7,12,13,14-pentamethyl-1,4,7,11,14-pentaazacyclooctadecane-3,6,10,15,18-pentaone] are 101.21% and 41 nM.
In the same order, the values of `COC[C@@H]1NC(=O)[C@H](C)N(Cc2ccc(Cl)cc2Oc2cc(F)c(-c3cnc(CN4CCCC4)n3C)c(F)c2)C(=O)C[C@@H](Cc2ccccc2)C(=O)N(C)[C@@H](C)CNC(=O)C[C@H](Cc2ccc(Cl)cc2)N(C)C1=O` [Compound 51, (2S,5S,8S,13S,16R)-16-benzyl-1-(4-chloro-2-(3,5-difluoro-4-(1-methyl-2-(pyrrolidin-1-ylmethyl)-1H-imidazol-5-yl)phenoxy)benzyl)-8-(4-chlorobenzyl)-5-(methoxymethyl)-2,7,13,14-tetramethyl-1,4,7,11,14-pentaazacyclooctadecane-3,6,10,15,18-pentaone] are 94.86% and 0.5 nM.
For `COC[C@@H]1NC(=O)[C@H](CCF)N(Cc2ccc(Cl)cc2Oc2ccc(-c3cnc(CN4CCCC4)n3C)cc2)C(=O)C[C@@H](Cc2ccccc2)C(=O)N(C)[C@@H](C)CNC(=O)C[C@H](Cc2ccc(Cl)cc2)N(C)C1=O` [Compound 54, (2S,5S,8S,13S,16R)-16-benzyl-1-(4-chloro-2-(4-(1-methyl-2-(pyrrolidin-1-ylmethyl)-1H-imidazol-5-yl)phenoxy)benzyl)-8-(4-chlorobenzyl)-2-(2-fluoroethyl)-5-(methoxymethyl)-7,13,14-trimethyl-1,4,7,11,14-pentaazacyclooctadecane-3,6,10,15,18-pentaone], the Max % inhibition was determined as 92.54% and the IC50 was 4.6 nM.
For the molecule `COC[C@@H]1NC(=O)[C@H](C)N(Cc2ccc(Cl)cc2Oc2ccc(-c3c(C)nc(CN4CCCC4)n3C)cc2)C(=O)C[C@@H](Cc2ccccc2)C(=O)N(C)[C@@H](C)CNC(=O)C[C@H](Cc2ccc(Cl)cc2)N(C)C1=O` [Compound 55, (2S,5S,8S,13S,16R)-16-benzyl-1-(4-chloro-2-(4-(1,4-dimethyl-2-(pyrrolidin-1-ylmethyl)-1H-imidazol-5-yl)phenoxy)benzyl)-8-(4-chlorobenzyl)-5-(methoxymethyl)-2,7,13,14-tetramethyl-1,4,7,11,14-pentaazacyclooctadecane-3,6,10,15,18-pentaone], the Max % inhibition is given as 58.77% and the IC50 came to 9.3 nM.
For `COC[C@@H]1NC(=O)[C@H](C)N(Cc2ccc(Cl)cc2Oc2ccc(-c3cnc(CN(C)C)n3C)cc2)C(=O)C[C@@H](Cc2cccc(C(F)F)c2)C(=O)N(C)[C@@H](C)CNC(=O)C[C@H](Cc2ccc(Cl)cc2)N(C)C1=O` [Compound 56, (2S,5S,8S,13S,16R)-1-(4-chloro-2-(4-(2-((dimethylamino)methyl)-1-methyl-1H-imidazol-5-yl)phenoxy)benzyl)-8-(4-chlorobenzyl)-16-(3-(difluoromethyl)benzyl)-5-(methoxymethyl)-2,7,13,14-tetramethyl-1,4,7,11,14-pentaazacyclooctadecane-3,6,10,15,18-pentaone], in that order: 101.80% and 2.6 nM.
In the same order, the values of `COC[C@@H]1NC(=O)[C@H](C)N(Cc2ccc(Cl)cc2Oc2ccc(-c3cnc(CN(C)C)n3C)cc2)C(=O)C[C@@H](Cc2ccc(C(F)F)cc2)C(=O)N(C)[C@@H](C)CNC(=O)C[C@H](Cc2ccc(Cl)cc2)N(C)C1=O` [Compound 57, (2S,5S,8S,13S,16R)-1-(4-chloro-2-(4-(2-((dimethylamino)methyl)-1-methyl-1H-imidazol-5-yl)phenoxy)benzyl)-8-(4-chlorobenzyl)-16-(4-(difluoromethyl)benzyl)-5-(methoxymethyl)-2,7,13,14-tetramethyl-1,4,7,11,14-pentaazacyclooctadecane-3,6,10,15,18-pentaone] are 95.83% and 2.1 nM.
In the same order, the values of `COC[C@@H]1NC(=O)[C@H](C)N(Cc2ccc(Cl)cc2Oc2ccc(-c3cnc(CN4CC[C@@H](F)C4)n3C)cc2)C(=O)C[C@@H](Cc2ccccc2)C(=O)N(C)[C@@H](C)CNC(=O)C[C@H](Cc2ccc(Cl)cc2)N(C)C1=O` [Compound 60, (2S,5S,8S,13S,16R)-16-benzyl-1-(4-chloro-2-(4-(2-(((R)-3-fluoropyrrolidin-1-yl)methyl)-1-methyl-1H-imidazol-5-yl)phenoxy)benzyl)-8-(4-chlorobenzyl)-5-(methoxymethyl)-2,7,13,14-tetramethyl-1,4,7,11,14-pentaazacyclooctadecane-3,6,10,15,18-pentaone] are 82.23% and 2.9 nM.
Consider `COC[C@@H]1NC(=O)[C@H](C)N(Cc2ccc(Cl)cc2Oc2ccc(-c3cnc(CN(C)C)n3C)cc2)C(=O)C[C@@H](Cc2ccccc2)C(=O)N(C)C2CCOCC2NC(=O)CC(Cc2ccc(Cl)cc2)N(C)C1=O` (stereo partly drawn) [Compound 61, (4S,7S,10S,14R)-14-benzyl-11-(4-chloro-2-(4-(2-((dimethylamino)methyl)-1-methyl-1H-imidazol-5-yl)phenoxy)benzyl)-4-(4-chlorobenzyl)-7-(methoxymethyl)-5,10,16-trimethyltetradecahydro-1H-pyrano[3,4-1][1,4,7,11,14]pentaazacyclooctadecine-2,6,9,12,15(3H)-pentaone], for which the Max % inhibition is recorded as 99.31% and the IC50 stood at 1.4 nM.
For `COC[C@@H]1NC(=O)[C@H](C)N(Cc2c(Oc3ccc(-c4cnc(CN(C)C)n4C)cc3)cccc2OC(F)F)C(=O)C[C@@H](C)C(=O)N(C)[C@@H](C)CNC(=O)C[C@H](Cc2ccc(Cl)cc2)N(C)C1=O` [Compound 62, (5S,8S,13S,16R)-8-(4-chlorobenzyl)-1-(2-(difluoromethoxy)-6-(4-(2-((dimethylamino)methyl)-1-methyl-1H-imidazol-5-yl)phenoxy)benzyl)-5-(methoxymethyl)-2,7,13,14,16-pentamethyl-1,4,7,11,14-pentaazacyclooctadecane-3,6,10,15,18-pentaone], in that order: 88.46% and 16.8 nM.
Take `COC[C@@H]1NC(=O)[C@H](C)N(Cc2ccc(Cl)cc2Oc2ccc(-c3cnc(CN4CCCC4)n3C)cc2)C(=O)C[C@@H](Cc2ccn(C(F)F)n2)C(=O)N(C)[C@@H](C)CNC(=O)C[C@H](Cc2ccc(Cl)cc2)N(C)C1=O` [Compound 63, (2S,5S,8S,13S)-1-(4-chloro-2-(4-(1-methyl-2-(pyrrolidin-1-ylmethyl)-1H-imidazol-5-yl)phenoxy)benzyl)-8-(4-chlorobenzyl)-16-((1-(difluoromethyl)-1H-pyrazol-3-yl)methyl)-5-(methoxymethyl)-2,7,13,14-tetramethyl-1,4,7,11,14-pentaazacyclooctadecane-3,6,10,15,18-pentaone]: the Max % inhibition was found to be 103.93% and the IC50 was determined as 87.3 nM.
In the case of `COC[C@@H]1NC(=O)[C@H](C)N(Cc2ccc(Cl)cc2Oc2ccc(-c3cnc(CN(C)C)n3C)cc2)C(=O)C[C@@H](C)C(=O)N(C)[C@H]2CCCC[C@@H]2NC(=O)C[C@H](Cc2ccc(Cl)cc2)N(C)C1=O` [Compound 64, (4S,7S,10S,14R,16aS,20aS)-11-(4-chloro-2-(4-(2-((dimethylamino)methyl)-1-methyl-1H-imidazol-5-yl)phenoxy)benzyl)-4-(4-chlorobenzyl)-7-(methoxymethyl)-5,10,14,16-tetramethylhexadecahydrobenzo[l][1,4,7,11,14]pentaazacyclooctadecine-2,6,9,12,15(3H)-pentaone], the Max % inhibition is reported as 79.08% and the IC50 came to 9 nM.
In the same order, the values of `COC[C@@H]1NC(=O)[C@H](C)N(Cc2ccc(Cl)cc2Oc2ccc(-c3cnc(CN(C)C)n3C)cc2)C(=O)C[C@@H](Cc2ccccc2)C(=O)N(C)CC(C)(C)NC(=O)C[C@H](Cc2ccc(Cl)cc2)N(C)C1=O` [Compound 65, (2S,5S,8S,16R)-16-benzyl-1-(4-chloro-2-(4-(2-((dimethylamino)methyl)-1-methyl-1H-imidazol-5-yl)phenoxy)benzyl)-8-(4-chlorobenzyl)-5-(methoxymethyl)-2,7,12,12,14-pentamethyl-1,4,7,11,14-pentaazacyclooctadecane-3,6,10,15,18-pentaone] are 92.63% and 189 nM.

(Values after patent US20230089867A1, “CYCLIC PENTAMER COMPOUNDS AS PROPROTEIN CONVERTASE SUBTILISIN/KEXIN TYPE 9 (PCSK9) INHIBITORS FOR THE TREATMENT OF METABOLIC DISORDER” (Novartis AG, priority 2018, published 2023).)
